# Reference: patent publication US20250382344A1, “Soluble GLP1/GIP/NPY2 Receptor Triple Agonists” (Boehringer Ingelheim International GmH, priority 2024, published 2025)
# Where two headings read alike, the source gives them in different places.
# Legend:
# hGIPR = biological target: T1, hGIPR (Homo sapiens, UniProt P48546); assay: hGIPR CreLuc assay in 0.5% and 100% plasma (CHO CRE-luciferase reporter cells); format: cell-based; settings: 0.5% human plasma
# T1 construct: expressed in transfected cells; host or cells: CHO CRE-luciferase reporter cells
# T1 sequence (P48546 22-466): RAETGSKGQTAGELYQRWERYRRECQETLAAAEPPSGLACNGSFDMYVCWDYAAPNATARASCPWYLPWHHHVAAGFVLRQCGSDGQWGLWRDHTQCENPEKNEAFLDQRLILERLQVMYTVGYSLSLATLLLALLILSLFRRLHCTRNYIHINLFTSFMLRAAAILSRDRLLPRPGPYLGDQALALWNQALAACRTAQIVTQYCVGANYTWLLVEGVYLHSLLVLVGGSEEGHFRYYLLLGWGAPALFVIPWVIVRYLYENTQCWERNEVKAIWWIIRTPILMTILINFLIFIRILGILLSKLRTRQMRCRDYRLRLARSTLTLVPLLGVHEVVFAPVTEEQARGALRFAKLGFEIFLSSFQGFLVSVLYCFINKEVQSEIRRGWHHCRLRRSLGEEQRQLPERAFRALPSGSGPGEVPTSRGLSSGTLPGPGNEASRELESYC
# [1] = Solubility in 0.1 M phosphate buffer at pH 7; format: physicochemical; settings: 0.1 M phosphate buffer at pH 7, 10 mg/mL final peptide concentration, shaking 2 hours at room temperature, peptides as TFA-salts; measured sample pH 6.5-7.0
Structure (SMILES),EC50 (hGIPR; hGIPR 0.5% hP (nM)) [nM],solubility at 2 h [1] [µg/mL],EC50 (hGIPR; read-out: hGIPR 0.5% hP) [nM]
"CC[C@H](C)[C@H](NC(=O)[C@H](CC(C)C)NC(=O)[C@H](Cc1c[nH]cn1)NC(=O)[C@H](CCCNC(=N)N)NC(=O)[C@@H](NC(=O)[C@H](Cc1ccccc1)NC(=O)[C@H](C)NC(=O)C(C)(C)NC(=O)[C@H](CCC(N)=O)NC(=O)[C@H](C)NC(=O)[C@H](CCC(N)=O)NC(=O)[C@H](CCCCN)NC(=O)[C@H](CCC(=O)O)NC(=O)[C@H](CC(C)C)NC(=O)C(C)(C)NC(=O)[C@@H](NC(=O)[C@H](CO)NC(=O)[C@H](CC(C)C)NC(=O)[C@H](CC(=O)O)NC(=O)[C@H](CO)NC(=O)[C@@H](NC(=O)[C@H](Cc1ccccc1)NC(=O)[C@@H](NC(=O)CNC(=O)[C@H](CCC(=O)O)NC(=O)C(C)(C)NC(=O)[C@@H](N)Cc1ccc(O)cc1)[C@@H](C)O)[C@@H](C)O)[C@@H](C)CC)C(C)C)C(=O)N[C@@H](CC(N)=O)C(=O)N[C@@H](CCCCNC(=O)CC[C@H](NC(=O)CC[C@H](NC(=O)CC[C@H](NC(=O)CC[C@H](NC(=O)CC[C@H](NC(=O)CC[C@H](NC(=O)CCCCCCCCCCCCCCCCCCC(=O)O)C(=O)O)C(=O)O)C(=O)O)C(=O)O)C(=O)O)C(=O)O)C(=O)NC(C)(C)C(=O)N[C@H](C(=O)N[C@@H](CCCNC(=N)N)C(=O)N[C@@H](CCC(N)=O)C(=O)N[C@@H](CCCNC(=N)N)C(=O)N[C@@H](Cc1ccc(O)cc1)C(N)=O)[C@@H](C)O [Compound 51, Y-Aib-E-G-T-F-T-S-D-L-S-I-Aib-L-E-K-Q-A-Q-Aib-A-F-V-R-H-L-I-N-K(1,3)-Aib-T-R-Q-R-Y-NH2.C20DA-gGlu-gGlu-gGlu-gGlu-gGlu-gGlu(1,2)]",0.5,9300,–
"CC[C@H](C)[C@H](NC(=O)[C@H](CC(C)C)NC(=O)[C@H](Cc1c[nH]cn1)NC(=O)[C@H](CCCNC(=N)N)NC(=O)[C@@H](NC(=O)[C@H](Cc1ccccc1)NC(=O)[C@H](C)NC(=O)C(C)(C)NC(=O)[C@H](CCC(N)=O)NC(=O)[C@H](C)NC(=O)[C@H](CCC(N)=O)NC(=O)[C@H](CCCCN)NC(=O)[C@H](CCC(=O)O)NC(=O)[C@H](CC(C)C)NC(=O)C(C)(C)NC(=O)[C@@H](NC(=O)[C@H](CO)NC(=O)[C@H](Cc1ccc(O)cc1)NC(=O)[C@H](CC(=O)O)NC(=O)[C@H](CO)NC(=O)[C@@H](NC(=O)[C@H](Cc1ccccc1)NC(=O)[C@@H](NC(=O)CNC(=O)[C@H](CCC(=O)O)NC(=O)C(C)(C)NC(=O)[C@@H](N)Cc1ccc(O)cc1)[C@@H](C)O)[C@@H](C)O)[C@@H](C)CC)C(C)C)C(=O)N[C@@H](CC(N)=O)C(=O)N[C@@H](CCCCNC(=O)[C@@H](N)CCNC(=O)CC[C@H](NC(=O)CC[C@H](NC(=O)CC[C@H](NC(=O)CC[C@H](NC(=O)CC[C@H](NC(=O)CC[C@H](NC(=O)CCCCCCCCCCCCCCCCCCC(=O)O)C(=O)O)C(=O)O)C(=O)O)C(=O)O)C(=O)O)C(=O)O)C(=O)NC(C)(C)C(=O)N[C@H](C(=O)N[C@@H](CCCNC(=N)N)C(=O)N[C@@H](CCC(N)=O)C(=O)N[C@@H](CCCNC(=N)N)C(=O)N[C@@H](Cc1ccc(O)cc1)C(N)=O)[C@@H](C)O [Compound 46, Y-Aib-E-G-T-F-T-S-D-Y-S-I-Aib-L-E-K-Q-A-Q-Aib-A-F-V-R-H-L-I-N-K(1,3)-Aib-T-R-Q-R-Y-NH2.C20DA-gGlu-gGlu-gGlu-gGlu-gGlu-gGlu-gDab(1,2)]",–,4200,0.8
